From patent US20130263297A1, “METHODS OF TREATING CANCER” (Cedars-Sinai Medical Center, priority 2010, published 2013) come the findings set out here.

Entries after “also recorded” stand apart in the source; their conditions may differ.

The test system of assay [1] is RANKL-expressing prostate cancer cells. The assay can be described thus: Stem cell and neuroendocrine marker expression. It counts as cell-based.
The subject of assay [2] is LNCaP-RANKL cells. In words: Soft agar (anchorage-independent) colony formation, LNCaP-RANKL. It counts as cell-based, human. The following applies: addition of OPG.
In assay [3] the test system is RANKL promoter in ARCaPE, ARCaPM and ARCaPE-RANKL cells. The assay can be described thus: RANKL promoter reporter assay, ARCaP model. It counts as cell-based, human. The text has this:
Because the inventors are interested in how RANKL is transcriptionally regulated, the inventors have constructed a 2.5 kb 5′ upstream region of RANKL promoter. The inventors used BAC clones (RP11-86N24) to amplify the promoter region of RANKL from human chromosome 13 contig. The whole promoter region (2.5 kb) was then cloned into pGL3 basic luciferase reporter vector. The inventors placed RANKL promoter reporter into ARCaPE,M, C4-2, and a positive cell line, SaOS-2 to examine the basic promoter activity. Then, the inventors stimulated the RANKL promoter by various growth factors, such as vitamin D3, PTH, and TGFβ.
In general terms: In a reporter assay the amount or activity of a reporter protein is the signal.

The subject of assay [4] is RAW 264.7 cells. In words: In vitro osteoclastogenesis assay (co-culture of RAW 264.7 osteoclast precursor cells with prostate cancer cells, TRAP staining). The format is cell-based, mouse. Here is the method:
The co-cultures of osteoclast precursor cells (RAW 264.7 cells) and prostate cancer cells were performed in 48-well plate containing 500 μl of α-MEM media supplemented with 10% FBS and were set up in quadruplicates. Osteoclast precursor cells were seeded with prostate cancer cells in an 8:1 ratio (15,000 RAW 264.7 cells and 1,875 prostate cancer cells) per well. Recombinant mouse RANKL (100 ng/ml, provided by Dr. Xu Feng), was added to the assay as the positive control. Additionally, recombinant OPG (1 μg/ml) was added to designated wells to block RANKL-mediated increased osteoclastogenesis. The cells were checked under the microscope daily from day-4 to day-7. Cells were fixed and subjected to tartrate-resistant acid phosphatase (TRAP) staining (Sigma-Aldrich, Inc., St. Louis, Mo.). TRAP^+ multinucleated cells (3 nuclei) in the entire well were counted as mature osteoclasts and the images were taken under light microscopy.

Assay [5] relates to RANKL promoter in LNCaP and LNCaP-RANKL cells. In words: RANKL promoter reporter assay, LNCaP model. It counts as cell-based, human.
Assay [6] concerns ARCaPE-RANKL cells. The assay can be described thus: Soft agar (anchorage-independent) colony formation, ARCaPE-RANKL. It counts as cell-based, human. Particulars: addition of OPG.
The subject of assay [7] is cMet transcriptional activity. In words: cMet promoter reporter assay. It counts as cell-based.
For assay [8], the system named is prostate (ARCaP and LNCaP) and osteosarcoma (MG-63 and Saos-2) cells; normal prostate (PrEC and RWPE-1) or bone (RAW264.7) cells. In words: RANKL induction of its own expression, cancer versus normal cells. The format is cell-based.
In assay [9] the test system is human cancer cells. In words: Bone colonization by human cancer cells (FIG. 34). It counts as in vivo. Particulars: recombinant sRANKL.

As to osteoprotegerin [OPG], in assay [1], the “expression of neuroendocrine markers” value is reported as “blocked” and the “expression of stem cell markers” value is recorded as “antagonized”. Moreover, the “soft agar colony formation (tumorigenicity) of LNCaP-RANKL cells” value in [2] was “attenuated”. For the same molecule, in [3] (OPG treatment), the “RANKL promoter activity in ARCaPM cells” value is “dampen” and the “increased RANKL promoter activity in ARCaPE-RANKL cells” value is “attenuated”. Further, the “formation of mature osteoclasts induced by ARCaPE-RANKL and LNCaP-RANKL cells” value in [4] (addition of OPG (1 μg/ml) to co-culture with RAW264.7) is “blocked; also recorded: decreased by approximately two-fold”. In assay [4] (addition of OPG to co-culture with RAW264.7), the “osteoclastogenesis induced by Neo-transfected control cells” value is on record as “very minimal blocking effects”. Further, in assay [5] (OPG treatment), the “increased RANKL promoter activity in LNCaP-RANKL cells” value is given as “attenuated”. Besides, the “soft agar colony formation (tumorigenicity) of ARCaPE-RANKL cells” value in assay [6] is “attenuated”. Further, the “RANKL up-regulated cMet transcriptional activity” value in assay [7] (OPG treatment) is listed as “attenuated”.

B1: RANKL: trimerized recombinant RANKL protein (rRANKL), receptor activator of NF-KB ligand (protein, UniProt O14788 69-317, looked up)
extracellular domain: YFRAQMDPNRISEDGTHCIYRILRLHENADFQDTTLESQDTKLIPDSCRRIKQAFQGAVQKELQHIVGSQHIRAEKAMVDGSWLDLAKRSKLEAQPFAHLTINATDIPSGSHKVSLSSWYHDRGWAKISNMTFSNGKLIVNQDGFYYLYANICFRHHETSGDLATEYLQLMVYVTKTSIKIPSSHTLMKGGSTKYWSGNSEFHFYSINVGGFFKLRSGEEISIEVSNPSLLDPDQDATYFGAFKVRDID
modifications: extracellular domain trimerized
As for B1, the “ability of recombinant RANKL to induce its own expression” value in assay [8] is given as “restricted to cancer”. Also, the “bone colonization by human cancer cells” value in assay [9] was “promotes bone colonization”. Further, in [3] (RANKL treatments), the “RANKL promoter activity in ARCaPE and ARCaPM cells” value is recorded as “induced”. Besides, the “RANKL promoter activity in LNCaP cells” value in assay [5] (RANKL treatment) is “induction”. In addition, the cMet transcriptional activity result in [7] (RANKL treatment) is on record as “up-regulated”.
